Patent publication US9322066B2, “Predictors for cancer treatment” (priority 2011, dated 2016)

System: relapsed or refractory, rituximab-naive or -sensitive follicular B-cell NHL
Assay: Duration of response, Vc-R vs rituximab study, by biomarker
Type: in vivo, human
Source text: Non-Hodgkin lymphoma (NHL) encompasses several unique malignant lymphoid disease entities that vary in clinical behavior, morphologic appearance, immunologic, and molecular phenotype. […] A randomized, open-label, active-controlled, multicenter, multinational, prospective study to compare the efficacy and safety of the combination of bortezomib and rituximab (Vc-R) to single-agent rituximab in subjects who have relapsed or refractory, rituximab-naive or -sensitive follicular B-cell NHL was performed.
Subjects were centrally randomized to Treatment Groups A (Vc-R) or B (rituximab) in a 1:1 ratio taking into account the following stratification factors: • Follicular Lymphoma International Prognostic Index (FLIPI) score (low [0 or 1 factor], intermediate [2 factors], high [≧3 factors]); • Prior rituximab therapy (yes, no); • Time since last dose of anti-lymphoma therapy (≦1 year, >1 year); • Region (United States/Canada, European Union, Rest of World).
The following clinical endpoints were included in the analysis within each treatment group and an overall comparison was made with the biomarker-related endpoints: Progression-free survival, defined as the interval between the date of randomization and the date of progressive disease (PD) or death, whichever is first reported in the ITT population; overall survival; overall response rate (complete response [CR]+CR unconfirmed [CRu]+partial response [PR]); overall CR rate (CR+CRu); duration of response; time to next anti-lymphoma therapy; and treatment free interval.
Comparison of the response rates between the treatment groups was conducted using the Fishers Exact Test. Duration of response, time to response, and time to clinical relapse were analyzed descriptively, where appropriate, and the biomarker subset was compared (if appropriate, determined as per the initial analysis) to the overall clinical cohort, by treatment group and overall. An exploratory estimate of the response rates in each treatment group was presented with 2-sided 95% confidence intervals. The number and percentage of subjects falling into each response category was descriptively tabulated.

[1] = 20S % NUCLEAR STAINING: 30-50, Prior Rituximab Therapy
[2] = 20S INTENSITY CYTOPLASMIC SIGNAL: ≦2+, Intermediate FLIPI Score
[3] = 20S INTENSITY CYTOPLASMIC SIGNAL: ≧3+, Intermediate FLIPI Score
[4] = 20S INTENSITY CYTOPLASMIC SIGNAL: ≧3+, No Prior Rituximab Therapy
[5] = 20S INTENSITY CYTOPLASMIC SIGNAL: ≧3+, ≦65 years old
[6] = BCL2/ A43G: MND, Ann Arbor Stage IV
[7] = BCL2/ E29K: MND, Ann Arbor Stage IV
[8] = BCL2/ P46L: MD, >1 year since last anti- lymphoma treatment
[9] = BCL2/ P59L: MD, 1 Prior Line of Therapy
[10] = BCL2/ P59L: MD, >1 year since last anti- lymphoma treatment
[11] = BCL2/ P59L: MD, Prior Rituximab Therapy
[12] = BCL2/ R106H: MND, Ann Arbor Stage IV
[13] = CD68 OVERALL POSITIVE: 0-25, High FLIPI Score
[14] = CD68 OVERALL POSITIVE: 0-25, ≦1 year since last anti-lymphoma treatment
[15] = CD68 OVERALL POSITIVE: 51-75, Male
[16] = CD68 OVERALL POSITIVE: >75, Male
[17] = CD68 POSITIVE FOLLICULAR: 0-25, Female
[18] = CD68 POSITIVE PERIFOLLICULAR: >75, Male
[19] = NOTCH/ P2513L: MND, >65 years old
[20] = NOTCH/ X28INS: MND, Ann Arbor Stage IV
[21] = NOTCH/ X28INS: MND, ≦65 years old
[22] = P27 % NUCLEI POSITIVE: 60-70, High FLIPI Score
[23] = P27 % NUCLEI POSITIVE: 60-70, Male
[24] = P65 INTENSITY CYTOPLASMIC SIGNAL: ≦1+, Ann Arbor Stage III

rituximab
Duration of response Evt/N [1]: 9/13 | Duration of response Median [1]: 356 | Duration of response Evt/N [2]: 9/25 | Duration of response Median [2]: 554 | Duration of response Evt/N [3]: 17/25 | Duration of response Median [3]: 352 | Duration of response Evt/N [4]: 22/32 | Duration of response Median [4]: 427 | Duration of response Evt/N [5]: 28/39 | Duration of response Median [5]: 417 | Duration of response Evt/N [6]: 23/28 | Duration of response Median [6]: 353 | Duration of response Evt/N [7]: 21/26 | Duration of response Median [7]: 344 | Duration of response Evt/N (BCL2/ E29K: MND, ≦65 years old): 32/49 | Duration of response Median (BCL2/ E29K: MND, ≦65 years old): 353 | Duration of response Evt/N [8]: 5/5 | Duration of response Median [8]: 356 | Duration of response Evt/N [9]: 2/2 | Duration of response Median [9]: 345 | Duration of response Evt/N [10]: 3/4 | Duration of response Median [10]: 330 | Duration of response Evt/N (BCL2/ P59L: MD, No Subgroup): 4/5 | Duration of response Median (BCL2/ P59L: MD, No Subgroup): 343 | Duration of response Evt/N [11]: 3/3 | Duration of response Median [11]: 330 | Duration of response Evt/N (BCL2/ P59L: MD, White): 4/5 | Duration of response Median (BCL2/ P59L: MD, White): 343 | Duration of response Evt/N [12]: 21/26 | Duration of response Median [12]: 352 | Duration of response Evt/N [13]: 7/11 | Duration of response Median [13]: 423 | Duration of response Evt/N [14]: 5/7 | Duration of response Median [14]: 354 | Duration of response Evt/N [15]: 5/7 | Duration of response Median [15]: 279 | Duration of response Evt/N [16]: 3/3 | Duration of response Median [16]: 284 | Duration of response Evt/N [17]: 12/20 | Duration of response Median [17]: 354 | Duration of response Evt/N [18]: 3/3 | Duration of response Median [18]: 284 | Duration of response Evt/N [19]: 10/23 | Duration of response Median [19]: 948 | Duration of response Evt/N [20]: 26/31 | Duration of response Median [20]: 353 | Duration of response Evt/N [21]: 44/64 | Duration of response Median [21]: 369 | Duration of response Evt/N [22]: 7/9 | Duration of response Median [22]: 337 | Duration of response Evt/N [23]: 5/6 | Duration of response Median [23]: 281 | Duration of response Evt/N [24]: 2/4 | Duration of response Median [24]: 173 | Duration of response Evt/N (PSMB5/R24C: C/C, Ann Arbor Stage II): 4/18 | Duration of response Evt/N (PSMB9/R60H: A/G, Male): 10/11 | Duration of response Median (PSMB9/R60H: A/G, Male): 211
